Legend:
Format in all cases: biochemical
Conditions in all cases: Table 8
[1] = biological target: T1, Porcine Ventricle myofibrils (left ventricle of Yucatan minipigs) (Sus scrofa, UniProt P79293); test: Myofibril ATPase assay (PK/LDH NADH-coupled), ventricle myofibrils
T1 construct: Myofibrils from porcine cardiac muscle was isolated from the left ventricle of Yucatan minipigs; tissue Exemplar Genetics; host or cells: left ventricle of Yucatan minipigs
Summary of the method: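 Yucatan minipig left-ventricle myofibrils; ATPase measured by PK/LDH-coupled NADH loss at 340 nm, read every 1.5-2 min for 75 min. Slopes normalized to vehicle (100%) and fit to 4-parameter logistic model; EC25 and, for inhibitors, EC50 calculated.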

[2] = test system: Rabbit Skeletal myofibrils (rabbit psoas muscle); test: Myofibril ATPase assay (PK/LDH NADH-coupled), skeletal myofibrils
Summary of the method: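 Rabbit psoas myofibrils in pCa (PIPES/CaCl2/EGTA, pH 7.0) buffer; ADP coupled via PK/LDH to NADH loss, read at 340 nm every 1.5–2 min for 75 min. Slopes normalized to vehicle (100%) and fit to 4-parameter logistic for EC25, plus EC50 for inhibitors.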

[3] = test system: Porcine Atria myofibrils; test: Myofibril ATPase assay (PK/LDH NADH-coupled), atria myofibrils
Summary of the method: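 Porcine atrial myofibril ATPase followed via PK/LDH-coupled NADH depletion, absorbance at 340 nm read every 1.5-2 min over 75 min. Slopes (mAU/min) normalized to vehicle as 100% and fit to a 4-parameter logistic; EC25% derived, plus EC50% for inhibitors.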

T1 sequence (P79293 whole entry): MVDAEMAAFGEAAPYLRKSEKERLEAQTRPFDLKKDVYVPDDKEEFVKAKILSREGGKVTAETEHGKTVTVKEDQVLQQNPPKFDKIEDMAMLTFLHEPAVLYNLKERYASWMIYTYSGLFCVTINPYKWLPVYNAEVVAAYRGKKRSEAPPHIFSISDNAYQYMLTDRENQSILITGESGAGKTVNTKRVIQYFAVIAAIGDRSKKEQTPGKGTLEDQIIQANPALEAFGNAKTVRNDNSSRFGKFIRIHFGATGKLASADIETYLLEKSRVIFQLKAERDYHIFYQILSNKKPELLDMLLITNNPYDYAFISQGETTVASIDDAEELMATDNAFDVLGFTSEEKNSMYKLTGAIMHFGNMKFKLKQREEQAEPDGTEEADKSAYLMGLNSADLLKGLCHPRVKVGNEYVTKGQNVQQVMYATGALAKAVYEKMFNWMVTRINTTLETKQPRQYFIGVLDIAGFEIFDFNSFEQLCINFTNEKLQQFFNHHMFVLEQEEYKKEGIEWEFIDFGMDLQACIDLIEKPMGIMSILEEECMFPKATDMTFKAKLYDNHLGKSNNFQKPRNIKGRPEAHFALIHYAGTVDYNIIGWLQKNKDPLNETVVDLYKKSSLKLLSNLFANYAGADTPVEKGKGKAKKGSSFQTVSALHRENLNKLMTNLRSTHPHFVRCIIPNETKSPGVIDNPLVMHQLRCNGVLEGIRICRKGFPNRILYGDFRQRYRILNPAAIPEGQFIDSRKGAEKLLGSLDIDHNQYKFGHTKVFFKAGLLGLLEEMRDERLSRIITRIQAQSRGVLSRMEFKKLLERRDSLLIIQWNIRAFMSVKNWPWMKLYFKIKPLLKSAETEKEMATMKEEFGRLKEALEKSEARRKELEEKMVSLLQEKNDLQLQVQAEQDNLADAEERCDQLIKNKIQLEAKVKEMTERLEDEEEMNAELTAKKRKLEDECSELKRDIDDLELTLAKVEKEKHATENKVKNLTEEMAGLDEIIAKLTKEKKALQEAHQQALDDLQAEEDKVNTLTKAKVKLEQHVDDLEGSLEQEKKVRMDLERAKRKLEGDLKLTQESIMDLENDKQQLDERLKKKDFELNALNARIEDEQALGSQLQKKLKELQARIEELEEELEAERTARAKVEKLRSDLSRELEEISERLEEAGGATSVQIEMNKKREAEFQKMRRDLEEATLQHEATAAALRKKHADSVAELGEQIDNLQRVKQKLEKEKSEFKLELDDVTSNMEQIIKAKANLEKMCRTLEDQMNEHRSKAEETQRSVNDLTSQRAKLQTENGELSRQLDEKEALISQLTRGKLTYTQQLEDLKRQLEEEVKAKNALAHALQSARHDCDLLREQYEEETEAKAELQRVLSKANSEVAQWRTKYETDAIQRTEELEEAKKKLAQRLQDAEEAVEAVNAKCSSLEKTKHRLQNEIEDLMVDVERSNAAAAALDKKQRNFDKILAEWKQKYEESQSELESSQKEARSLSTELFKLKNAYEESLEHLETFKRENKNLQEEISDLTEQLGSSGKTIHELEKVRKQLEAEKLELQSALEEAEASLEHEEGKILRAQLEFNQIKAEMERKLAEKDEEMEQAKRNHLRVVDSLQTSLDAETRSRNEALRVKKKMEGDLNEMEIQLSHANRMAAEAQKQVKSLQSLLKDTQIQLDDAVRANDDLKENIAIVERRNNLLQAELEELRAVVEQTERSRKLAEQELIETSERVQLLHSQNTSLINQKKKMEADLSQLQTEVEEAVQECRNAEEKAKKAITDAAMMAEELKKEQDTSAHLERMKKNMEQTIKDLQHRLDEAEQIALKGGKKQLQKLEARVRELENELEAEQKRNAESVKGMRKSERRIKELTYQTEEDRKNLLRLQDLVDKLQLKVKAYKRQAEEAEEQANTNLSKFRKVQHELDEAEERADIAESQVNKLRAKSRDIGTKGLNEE

SMILES | Porcine Ventricle IC25 [1] | Rabbit Psoas IC25 [2] | Porcine Atria IC25 [3]
COc1cccnc1[C@@H](C)NC(=O)CN1Cc2cc(F)ccc2NC1=O [Compound B186] | 100 µM | 100 µM | 100.00 µM
COc1cccnc1[C@H](C)NC(=O)CN1Cc2cc(F)ccc2NC1=O [Compound B187] | 100 µM | 100 µM | 68.80 µM
C[C@@H](NC(=O)CN1Cc2c(ccc(F)c2F)NC1=O)c1ccc(C#N)cc1F [Compound B188] | 1.834 µM | 0.4649 µM | 0.42 µM
C[C@@H](NC(=O)CN1Cc2c(ccc(F)c2F)NC1=O)c1ncc(F)cc1F [Compound B190] | 50.31 µM | 9.504 µM | 17.83 µM
Cc1cccnc1[C@@H](C)NC(=O)CN1Cc2cc(F)ccc2NC1=O [Compound B192] | 100 µM | 100 µM | 100.00 µM
Cc1cccnc1[C@H](C)NC(=O)CN1Cc2cc(F)ccc2NC1=O [Compound B193] | 40.61 µM | 41.67 µM | 28.17 µM
Cc1cnc([C@@H](C)NC(=O)CN2Cc3cc(F)ccc3NC2=O)c(F)c1 [Compound B194] | 78.56 µM | 6.088 µM | 3.71 µM
Cc1cnc([C@H](C)NC(=O)CN2Cc3cc(F)ccc3NC2=O)c(F)c1 [Compound B195] | 100 µM | 100 µM | 100.00 µM
C[C@@H](NC(=O)CN1Cc2cc(C#N)ccc2NC1=O)c1ncc(F)cc1F [Compound B196] | 100 µM | 100 µM | 100.00 µM
C[C@H](NC(=O)CN1Cc2cc(C#N)ccc2NC1=O)c1ncc(F)cc1F [Compound B197] | 100 µM | 87.6 µM | 18.70 µM
C[C@@H](NC(=O)CN1Cc2cc(F)ccc2NC1=O)c1ncc(C#N)cc1F [Compound B198] | 100 µM | 100 µM | 100.00 µM
C[C@H]1c2ccccc2NC(=O)N1CC(=O)N[C@@H](CO)c1ccc(F)cc1F [Compound B201] | 100 µM | 18.61 µM | 25.98 µM
CC(NC(=O)CN1Cc2cc(F)ccc2NC1=O)c1ccccc1Br (stereo not drawn) [Compound B202] | 1.035 µM | 0.1741 µM | 0.18 µM
C[C@@H](NC(=O)CN1Cc2cc(F)ccc2NC1=O)c1ccc(C#N)cc1 [Compound B203] | 23.26 µM | 14.19 µM | 5.48 µM
C[C@H](NC(=O)CN1Cc2cc(F)ccc2NC1=O)c1ccc(C#N)cc1 [Compound B204] | 1.393 µM | 0.1501 µM | 0.27 µM
C[C@@H](NC(=O)CN1Cc2cc(F)ccc2NC1=O)c1ccc(C#N)cc1F [Compound B205] | 16.29 µM | 6.054 µM | 2.07 µM
CC(C)C[C@@H](C(=O)N[C@@H](C)c1ccc(F)cc1F)N1Cc2cc(F)ccc2NC1=O [Compound B207] | 100 µM | 100 µM | 100.00 µM
CC(C)C[C@H](C(=O)N[C@@H](C)c1ccc(F)cc1F)N1Cc2cc(F)ccc2NC1=O [Compound B208] | 100 µM | 100 µM | 100.00 µM
Cc1ccc([C@@H](C)NC(=O)CN2Cc3cc(F)ccc3NC2=O)c(F)c1 [Compound B209] | 100 µM | 100 µM | 12.15 µM
Cc1ccc([C@H](C)NC(=O)CN2Cc3cc(F)ccc3NC2=O)c(F)c1 [Compound B210] | 2.251 µM | 0.1421 µM | 0.18 µM
C[C@@H](C(=O)N[C@H](CO)c1ccc(F)cc1F)N1Cc2c(Cl)cccc2NC1=O [Compound B211] | 100 µM | 100 µM | 100.00 µM
C[C@@H](C(=O)N[C@@H](CO)c1ccc(F)cc1F)N1Cc2c(Cl)cccc2NC1=O [Compound B212] | 15.17 µM | 77.91 µM | 1.52 µM
C[C@H](C(=O)N[C@H](CO)c1ccc(F)cc1F)N1Cc2c(Cl)cccc2NC1=O [Compound B213] | 100 µM | 100 µM | 97.43 µM
C[C@H](C(=O)N[C@@H](CO)c1ccc(F)cc1F)N1Cc2c(Cl)cccc2NC1=O [Compound B214] | 0.2408 µM | 0.088 µM | 0.07 µM
C[C@@H](NC(=O)CN1Cc2cc(F)ccc2NC1=O)c1ncccn1 [Compound B215] | 100 µM | 100 µM | 100.00 µM
C[C@H](NC(=O)CN1Cc2cc(F)ccc2NC1=O)c1ncccn1 [Compound B216] | 100 µM | 100 µM | 100.00 µM
O=C(CN1Cc2cc(F)ccc2NC1=O)N[C@H](CO)c1ccc(F)cc1F [Compound B217] | 0.8987 µM | 0.0678 µM | 0.13 µM
O=C(CN1Cc2cc(F)ccc2NC1=O)N[C@@H](CO)c1ccc(F)cc1F [Compound B218] | 100 µM | 9.306 µM | 8.55 µM
C[C@H](NC(=O)[C@H](Cc1ccccc1)N1Cc2cc(F)ccc2NC1=O)c1ccc(F)cc1F [Compound B219] | 100 µM | 31.8 µM | 100.00 µM

Reference: patent US12509431B2, “1,4-dihydroquinazolinone compounds and uses thereof” (Edgewise Therapeutics, Inc., priority 2022, dated 2025)
